Laboratory results taken from patent US5130421A, “Production of 2',3'-dideoxy-2',3'-didehydronucleosides” (priority 1991, dated 1992).
pIC50: −log10 of the molar value. Read-outs that look alike come from different tables or passages of the source.

How the values were obtained:
[1] = tested on: HIV (LAV strain); assay: in vitro anti-HIV efficacy (antiviral test on HIV (LAV strain)-infected CEM cells); type: cell-based; conditions: Human immunodeficiency virus 1, CCRF-CEM, read-out: ID50 (the 50% inhibitory dose)
Method: Comparative in vitro anti-HIV efficacy^a and
^a The antiviral test was performed on HIV (LAV strain)infected CEM
^c The 50% inhibitory dose.

[2] = cellular toxicity measured in CEM cells; type: cell-based; conditions: human, read-out: TCID50 (the 50% tissue culture inhibitory dose)
Method: cellular toxicity^b of AZT and d4T.
^b The cellular toxicity was measured in CEM cells.
^d The 50% tissue culture inhibitory dose.

[3] = tested on: AIDS; conditions: clinical trials, patients with AIDS; cited from earlier work
[4] = tested on: HIV; conditions: cited from earlier work
[5] = tested on: HIV; conditions: in several cell lines; cited from earlier work

Compound	reported activity against HIV [4]	other results
Cc1cn([C@H]2C[C@H](N=[N+]=[N-])[C@@H](CO)O2)c(=O)[nH]c1=O [AZT, 3'-azido-3'-deoxythymidine]	–	pIC50 [1]: 6.35; CC50 [2]: 54 µM; efficacy in the treatment of AIDS [3]: efficacious agent in the treatment of AIDS in clinical trials
Cc1cn([C@H]2C[C@H](F)[C@@H](CO)O2)c(=O)[nH]c1=O [FDDT, 3'-fluoro-3'-deoxythymidine]	active against HIV	–
O[C@H]1[C@H](O)[C@@H](O)CN2CC[C@H](O)[C@H]12 [castanospermine]	active against HIV	–
Nc1ccn([C@H]2C=C[C@@H](CO)O2)c(=O)n1 [d4C, 2',3'-dideoxy-2',3'-didehydrocytidine]	active against HIV	–
Cc1cn([C@H]2C=C[C@@H](CO)O2)c(=O)[nH]c1=O [d4T, 1-(2,3-Dideoxy-β-D-glycero-pent-2-enofuranosyl)thymine]	–	in vitro activity against HIV [5]: possesses in vitro activity against HIV in several cell lines; pIC50 ([1]; in vitro anti-HIV efficacy, HIV (LAV strain) infected CEM cells): 6.48; CC50 [2]: 39 µM
CC(C)(S)[C@@H](N)C(=O)O [d-penicillamine]	active against HIV	–
Nc1ncnc2c1ncn2[C@H]1CC[C@@H](CO)O1 [ddA, 2',3'-dideoxyadenosine]	active against HIV	–
Nc1ccn([C@H]2CC[C@@H](CO)O2)c(=O)n1 [ddC, 2',3'-Dideoxycytidine]	active against HIV	–
O=C(O)P(=O)(O)O [foscarnet]	active against HIV	–
CC(=O)O[C@H]1C[C@@]2(C)[C@@H](C[C@@H](O)[C@H]3[C@@]4(C)CC[C@@H](O)[C@@H](C)[C@@H]4CC[C@@]32C)/C1=C(\CCC=C(C)C)C(=O)O [fusidic acid]	active against HIV	–
NC(=O)c1ncn([C@@H]2O[C@H](CO)[C@@H](O)[C@H]2O)n1 [ribavarin]	active against HIV	–
Cc1ccc(C(=O)Nc2ccc(S(=O)(=O)O)c3cc(S(=O)(=O)O)cc(S(=O)(=O)O)c23)cc1NC(=O)c1cccc(NC(=O)Nc2cccc(C(=O)Nc3cc(C(=O)Nc4ccc(S(=O)(=O)O)c5cc(S(=O)(=O)O)cc(S(=O)(=O)O)c45)ccc3C)c2)c1 [suramine]	active against HIV	–
